Test results as given in patent US8093389B2, “Substituted spirochromanone derivatives” (Merck Sharp & Dohme Corp., priority 2007, dated 2012).
Counter-ions that a name gives are not always drawn.

Experiments:
human ACC1 = human ACC1 (Homo sapiens, UniProt Q13085); assay: Acetyl CoA carboxylase (ACC) activity inhibition test, human ACC1; type: biochemical; settings: 1 μmol/liter test compound; read-out: Inhibition (%) by 1 μmol/liter Chemical, human ACC1
Protocol: (§1) A. Pharmacological Test Example (Acetyl CoA Carboxylase (ACC) Activity Inhibition Test)
(§2) A test compound is dissolved in dimethyl sulfoxide (DMSO) to a concentration of 10 mM and then diluted with DMSO to give a 100-fold concentrated solution of the compound compared with target assay concentration. The ACC enzyme activity inhibition test is carried out according to a modification of Thampy & Wakil's method (J. Biol. Chem., Vol. 260, pp. 6318-6323 (1985)). Concretely, 0.8 μl of the diluted test compound is added to each well of 96-well assay plate (Perkin Elmer Opti Plate), then 40 μl of a substrate solution (50 mM Hepes sodium (pH 7.5), 2 mM DTT, 10 mM ATP, 500 μM acetyl CoA, 0.17 mM NaH[^14C]O3 (58 mCi/mmol, by Amersham), 8 mM NaHCO3) is added to each well, and 40 μL of an enzyme solution (1 to 2 nM human ACC1 or human ACC2, 50 mM Hepes sodium (pH 7.5), 2 mM DTT, 40 mM MgCl2, 40 mM tripotassium citrate 1 mg/ml fetal bovine serum albumin) is added thereto. Then, the upper side of the plate is sealed up, and the plate is incubated with gently stirring at 37° C. for 40 minutes. Next, 20 μl of 1 N HCl is added to each well to stop the enzyme reaction, and the assay plate is stirred overnight to remove the unreacted NaH[^14C]O3. Next, 100 μl of a scintillator (Perkin Elmer's Microscinti 40) is added to each well and the plate is stirred, then the radioactivity of the fixed [^14C] is counted using a microplate scintillation counter (Perkin Elmer's Topcount), the radioactivity of which represents the enzyme activity in each well. The human ACC1 and human ACC2 enzyme-inhibition activities of the test compounds are calculated, based on the radioactivity of the well added by DMSO without test compound as a control.

human ACC2 = human ACC2 (Homo sapiens, UniProt O00763); assay: Acetyl CoA carboxylase (ACC) activity inhibition test, human ACC2; type: biochemical; settings: 1 μmol/liter test compound; read-out: Inhibition (%) by 1 μmol/liter Chemical, human ACC2
human ACC2, sequence (O00763 whole entry): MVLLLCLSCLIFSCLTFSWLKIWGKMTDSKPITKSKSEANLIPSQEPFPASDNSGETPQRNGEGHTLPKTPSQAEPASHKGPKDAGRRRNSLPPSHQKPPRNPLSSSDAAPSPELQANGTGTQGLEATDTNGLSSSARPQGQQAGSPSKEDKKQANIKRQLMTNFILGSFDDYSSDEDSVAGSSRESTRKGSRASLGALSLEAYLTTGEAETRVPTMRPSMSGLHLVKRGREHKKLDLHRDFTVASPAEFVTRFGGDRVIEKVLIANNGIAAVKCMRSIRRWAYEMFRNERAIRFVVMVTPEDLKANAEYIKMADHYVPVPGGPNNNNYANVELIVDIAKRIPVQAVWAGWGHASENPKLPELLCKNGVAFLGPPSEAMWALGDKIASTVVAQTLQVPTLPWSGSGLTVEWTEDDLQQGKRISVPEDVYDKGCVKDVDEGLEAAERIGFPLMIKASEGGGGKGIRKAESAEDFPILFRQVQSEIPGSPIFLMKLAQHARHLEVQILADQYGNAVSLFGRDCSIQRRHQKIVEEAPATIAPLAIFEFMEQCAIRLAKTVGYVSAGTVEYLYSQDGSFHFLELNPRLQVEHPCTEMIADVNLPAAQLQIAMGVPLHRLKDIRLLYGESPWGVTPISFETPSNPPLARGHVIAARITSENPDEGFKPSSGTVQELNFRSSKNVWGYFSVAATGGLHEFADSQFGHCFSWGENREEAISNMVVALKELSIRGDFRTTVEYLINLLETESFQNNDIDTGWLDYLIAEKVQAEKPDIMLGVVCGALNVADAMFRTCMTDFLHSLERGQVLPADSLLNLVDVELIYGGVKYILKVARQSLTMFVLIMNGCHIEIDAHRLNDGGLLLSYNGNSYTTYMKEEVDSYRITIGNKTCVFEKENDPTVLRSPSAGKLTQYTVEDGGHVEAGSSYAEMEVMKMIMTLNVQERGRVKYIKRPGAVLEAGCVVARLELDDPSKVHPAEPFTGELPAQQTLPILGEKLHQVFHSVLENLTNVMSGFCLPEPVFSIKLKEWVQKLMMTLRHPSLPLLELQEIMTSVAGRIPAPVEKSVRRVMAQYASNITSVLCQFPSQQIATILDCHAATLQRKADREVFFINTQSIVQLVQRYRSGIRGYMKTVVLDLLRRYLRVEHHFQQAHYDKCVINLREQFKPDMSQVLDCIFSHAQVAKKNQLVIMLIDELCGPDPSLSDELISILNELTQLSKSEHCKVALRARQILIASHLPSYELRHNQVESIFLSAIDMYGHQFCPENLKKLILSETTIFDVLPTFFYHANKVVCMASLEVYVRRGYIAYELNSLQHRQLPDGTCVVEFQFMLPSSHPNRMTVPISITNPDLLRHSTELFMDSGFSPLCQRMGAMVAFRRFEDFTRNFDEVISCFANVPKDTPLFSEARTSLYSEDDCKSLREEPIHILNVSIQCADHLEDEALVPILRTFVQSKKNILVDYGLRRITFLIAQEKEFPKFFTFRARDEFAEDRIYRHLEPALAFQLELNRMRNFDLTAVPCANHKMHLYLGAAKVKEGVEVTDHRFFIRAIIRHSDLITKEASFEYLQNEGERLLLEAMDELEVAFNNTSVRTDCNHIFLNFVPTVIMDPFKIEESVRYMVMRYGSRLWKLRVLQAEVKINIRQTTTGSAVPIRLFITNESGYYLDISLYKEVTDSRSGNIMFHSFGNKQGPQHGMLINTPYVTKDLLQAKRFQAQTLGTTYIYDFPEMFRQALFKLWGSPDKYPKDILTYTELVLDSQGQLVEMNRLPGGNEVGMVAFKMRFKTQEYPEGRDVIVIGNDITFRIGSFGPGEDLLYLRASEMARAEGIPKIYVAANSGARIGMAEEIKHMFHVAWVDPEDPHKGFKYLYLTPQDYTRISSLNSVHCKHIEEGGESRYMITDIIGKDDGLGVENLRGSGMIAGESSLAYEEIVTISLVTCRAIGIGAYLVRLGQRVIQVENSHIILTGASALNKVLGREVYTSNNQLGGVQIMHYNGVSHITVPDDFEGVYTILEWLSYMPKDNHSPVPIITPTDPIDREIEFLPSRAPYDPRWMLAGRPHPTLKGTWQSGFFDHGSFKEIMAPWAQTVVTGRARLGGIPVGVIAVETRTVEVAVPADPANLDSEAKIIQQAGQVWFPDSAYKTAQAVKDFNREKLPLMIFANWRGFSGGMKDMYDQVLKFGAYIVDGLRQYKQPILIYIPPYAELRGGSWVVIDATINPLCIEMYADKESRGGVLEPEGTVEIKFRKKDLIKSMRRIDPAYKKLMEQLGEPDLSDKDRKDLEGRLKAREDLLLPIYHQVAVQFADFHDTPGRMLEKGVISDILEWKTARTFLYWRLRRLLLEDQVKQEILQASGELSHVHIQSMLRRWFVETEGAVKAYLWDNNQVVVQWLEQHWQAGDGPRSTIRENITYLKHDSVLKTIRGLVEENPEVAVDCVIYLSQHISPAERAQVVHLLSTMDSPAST
Protocol: as §1, §2

inhibition at 1 µM (human ACC1) [%]	inhibition at 1 µM (human ACC2) [%]	Compound
91	89	CCn1cnc2c(OC)cc(C(=O)N3CCC4(CC3)CC(=O)c3cc(-c5nnn[nH]5)ccc3O4)cc21 [Example 1, 1-[(1-Ethyl-4-methoxy-1H-benzimidazol-6-yl)carbonyl]-6-(1H-tetrazol-5-yl)spiro[chroman-2,4′-piperidine]-4-one]
93	93	COc1cc(C(=O)N2CCC3(CC2)CC(=O)c2cc(-c4nnn[nH]4)ccc2O3)cn2c(C3CC3)cnc12 [Example 2, 1′-[(3-Cyclopropyl-8-methoxyimidazo[1,2-a]pyridin-6-yl)carbonyl]-6-(1H-tetrazol-5-yl)spiro[chroman-2,4′-piperidin]-4-one]
100	97	COc1cc(C(=O)N2CCC3(CC2)CC(=O)c2cc(-c4noc(=O)[nH]4)ccc2O3)cc2c1ccn2C1CC1 [Example 3, 1′-[(1-Cyclopropyl-4-methoxy-1H-indol-6-yl)carbonyl]-6-(5-oxo-4,5-dihydro-1,2,4-oxadiazol-3-yl)spiro[chroman-2,4′-piperidin]-4-one]
96	97	CCn1ccc2c(OCCO)cc(C(=O)N3CCC4(CC3)CC(=O)c3cc(-c5nnn[nH]5)ccc3O4)cc21 [Example 4, 1′-{[1-Ethyl-4-(2-hydroxyethoxy)-1H-indol-6-yl]carbonyl}-6-(1H-tetrazol-5-yl)spiro[chroman-2,4′-piperidin]-4-one]
99	99	COc1cc(C(=O)N2CCC3(CC2)CC(=O)c2cc(-c4cccc(C(=O)O)c4)ccc2O3)cc2c1ccn2C1CC1 [Example 5, Sodium 3-{1′-[(1-cyclopropyl-4-methoxy-1H-indol-6-yl)carbonyl]-4-oxospiro[chroman-2,4′-piperidin]-6-yl}benzoate]
100	99	COc1cc(C(=O)N2CCC3(CC2)CC(=O)c2cc(-c4cncc(C(=O)O)c4)ccc2O3)cc2c1ccn2C1CC1 [Example 7, 5-{1′-[(1-Cyclopropyl-4-methoxy-1H-indol-6-yl)carbonyl]-4-oxospiro[chroman-2,4′-piperidin]-6-yl}nicotinic acid sodium salt]
99	99	COc1cc(C(=O)N2CCC3(CC2)CC(=O)c2cc(-c4nnn[nH]4)ccc2O3)cc2c1ccn2OC [Example 8, 1′-{[1,4-Dimethoxy-1H-indol-6-yl]carbonyl}-6-(1H-tetrazol-5-yl)spiro[chroman-2,4′-piperidin]-4-one]
93	96	CCn1ncc2c(OC)cc(C(=O)N3CCC4(CC3)CC(=O)c3cc(-c5nnn[nH]5)ccc3O4)cc21 [Example 10, 1′-[(1-Ethyl-4-methoxy-1H-indazol-6-yl)carbonyl]-6-(1H-tetrazol-5-yl)spiro[chroman-2,4′-piperidin]-4-one]
99	98	COc1cc(C(=O)N2CCC3(CC2)CC(=O)c2cc(-c4nnn[nH]4)ccc2O3)cc2c1ccn2C1CC1 [Example 11, 1′-[(1-Cyclopropyl-4-methoxy-1H-indol-6-yl)carbonyl]-6-(1H-tetrazol-5-yl)spiro[chroman-2,4′-piperidin]-4-one]
100	99	CCOc1cc(C(=O)N2CCC3(CC2)CC(=O)c2cc(-c4nnn[nH]4)ccc2O3)cc2c1ccn2C1CC1 [Example 13, 1′-[(1-Cyclopropyl-4-ethoxy-1H-indol-6-yl)carbonyl]-6-(1H-tetrazol-5-yl)spiro[chroman-2,4′-piperidin]-4-one]
98	99	CCOc1cc(C(=O)N2CCC3(CC2)CC(=O)c2cc(-c4nnn[nH]4)ccc2O3)cc2c1c(C)cn2C1CC1 [Example 17, 1′-[(1-Cyclopropyl-4-ethoxy-3-methyl-1H-indol-6-yl)carbonyl]-6-(1H-tetrazol-5-yl)spiro[chroman-2,4′-piperidin]-4-one]
99	98	COc1cc(C(=O)N2CCC3(CC2)CC(=O)c2cc(-c4cncc(C(=O)O)c4)ccc2O3)cc2c1c(C)cn2C1CC1 [Example 23, 5-{1′-[(1-Cyclopropyl-4-methoxy-3-methyl-1H-indol-6-yl)carbonyl]-4-oxo-spiro[chroman-2,4′-piperidin]-6-yl}nicotinic acid sodium salt]
99	100	COc1cc(C(=O)N2CCC3(CC2)CC(=O)c2cc(-c4cncc(C(=O)O)c4)ccc2O3)cc2c1c(Cl)cn2C1CC1 [Example 24, 5-{1′-[(3-Chloro-1-cyclopropyl-4-methoxy-1H-indol-6-yl)carbonyl]-4-oxo-spiro[chroman-2,4′-piperidin]-6-yl}nicotinic acid sodium salt]
97	98	CCOc1cc(C(=O)N2CCC3(CC2)CC(=O)c2cc(-c4nnn[nH]4)ccc2O3)cc2c(C3CC3)noc12 [Example 31, 1′-[(3-cyclopropyl-7-ethoxy-1,2-benzisoxazol-5-yl)carbonyl]-6-(1H-tetrazol-5-yl)spiro[chroman-2,4′-piperidin]-4-one]
99	99	O=C1CC2(CCN(C(=O)c3cc(OCCO)c4ccn(C5CC5)c4c3)CC2)Oc2ccc(-c3nnn[nH]3)cc21 [Example 36]
100	100	CCOc1cc(C(=O)N2CCC3(CC2)CC(=O)c2cc(-c4cncc(C(=O)O)c4)ccc2O3)cc2c1c(C)cn2C1CC1 [Example 45, 5-{1′-[(1-cyclopropyl-4-ethoxy-3-methyl-1H-indol-6-yl)carbonyl]-4-oxospiro[chroman-2,4′-piperidin]-6-yl}nicotinic acid]
99	99	CCn1ccc2c(OC)cc(C(=O)N3CCC4(CC3)CC(=O)c3cc(-c5nnn[nH]5)ccc3O4)cc21 [Example 56, 1′-[(1-ethyl-4-methoxy-1H-indol-6-yl)carbonyl]-6-(1H-tetrazol-5-yl)spiro[chroman-2,4′-piperidin]-4-one]
99	99	COc1cc(C(=O)N2CCC3(CC2)CC(=O)c2cc(-c4nnc(C(N)=O)[nH]4)ccc2O3)cc2c1ccn2C1CC1 [Example 57, 5-{1′-[(1-cyclopropyl-4-methoxy-1H-indol-6-yl)carbonyl]-4-oxo-spiro[chroman-2,4′-piperidin]-6-yl}-4H-1,2,4-triazole-3-carboxamide]
